Measurements reported in ChEMBL document CHEMBL1201862, “PubChem BioAssay data set” (2004).
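These data come from cells grown in 96-well plates and exposed to compound for 48 hours at five concentrations. GI50 marks 50% less growth.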 Active and inactive are the calls of the source. Cut-off read from the data, not from the text of the source: active = GI50 up to about 1.1 µM and inactive = higher.

How the values were obtained:
Test in all cases: NCI tumour cell line growth inhibition, 48 h
SK-MEL-28 = tested on: SK-MEL-28
MDA-N = tested on: MDA-N
UO-31 = tested on: UO-31
MDA-MB-231 = tested on: MDA-MB-231
HT-29 = tested on: HT-29
SNB-19 = tested on: SNB-19
ACHN = tested on: ACHN
T47D = tested on: T47D
OVCAR-5 = tested on: OVCAR-5
EKVX = tested on: EKVX
NCI-H226 = tested on: NCI-H226
NCI-H460 = tested on: NCI-H460
HCT-116 = tested on: HCT-116
SF-295 = tested on: SF-295
SNB-75 = tested on: SNB-75
MOLT-4 = tested on: MOLT-4
K562 = tested on: K562
SF-268 = tested on: SF-268
SR = tested on: SR
NCI-H522 = tested on: NCI-H522
A498 = tested on: A498
HOP-62 = tested on: HOP-62
SF-539 = tested on: SF-539
HCC 2998 = tested on: HCC 2998
BT-549 = tested on: BT-549
PC-3 = tested on: PC-3
NCI/ADR-RES = tested on: NCI/ADR-RES
OVCAR-3 = tested on: OVCAR-3
MDA-MB-435 = tested on: MDA-MB-435
KM12 = tested on: KM12
SK-MEL-2 = tested on: SK-MEL-2
UACC-257 = tested on: UACC-257
HCT-15 = tested on: HCT-15
HOP-92 = tested on: HOP-92
SN12C = tested on: SN12C
MCF7 = tested on: MCF7
RPMI-8226 = tested on: RPMI-8226
M14 = tested on: M14
SW-620 = tested on: SW-620
A549 = tested on: A549
COLO 205 = tested on: COLO 205
TK-10 = tested on: TK-10
Hs-578T = tested on: Hs-578T
U-251 = tested on: U-251
CCRF-CEM = tested on: CCRF-CEM
LOX IMVI = tested on: LOX IMVI
DU-145 = tested on: DU-145
OVCAR-8 = tested on: OVCAR-8
786-0 = tested on: 786-0
HL-60 = tested on: HL-60
NCI-H23 = tested on: NCI-H23
IGROV-1 = tested on: IGROV-1
UACC-62 = tested on: UACC-62
RXF 393 = tested on: RXF 393
SK-MEL-5 = tested on: SK-MEL-5
OVCAR-4 = tested on: OVCAR-4
SK-OV-3 = tested on: SK-OV-3
CAKI-1 = tested on: CAKI-1
Malme-3M = tested on: Malme-3M

## CCOP(=O)(OCC)/C(C#N)=C/c1nccn1C
SK-MEL-28
  GI50: > 100 µM (inactive)
MDA-N
  GI50: > 100 µM (inactive)
UO-31
  GI50: > 100 µM (inactive)
MDA-MB-231
  GI50: > 100 µM (inactive)
HT-29
  GI50: > 100 µM (inactive)
SNB-19
  GI50: > 100 µM (inactive)
ACHN
  GI50: > 100 µM (inactive)
T47D
  GI50: > 100 µM (inactive)
OVCAR-5
  GI50: > 100 µM (inactive)
EKVX
  GI50: > 100 µM (inactive)
NCI-H226
  GI50: > 100 µM (inactive)
NCI-H460
  GI50: > 100 µM (inactive)
HCT-116
  GI50: > 100 µM (inactive)
SF-295
  GI50: > 100 µM (inactive)
SNB-75
  GI50: > 100 µM (inactive)
MOLT-4
  GI50: > 100 µM (inactive)
K562
  GI50: > 100 µM (inactive)
SF-268
  GI50: > 100 µM (inactive)
SR
  GI50: > 100 µM (inactive)
NCI-H522
  GI50: > 100 µM (inactive)
A498
  GI50: > 100 µM (inactive)
HOP-62
  GI50: > 100 µM (inactive)
SF-539
  GI50: > 100 µM (inactive)
HCC 2998
  GI50: > 100 µM (inactive)
BT-549
  GI50: > 100 µM (inactive)
PC-3
  GI50: > 100 µM (inactive)
NCI/ADR-RES
  GI50: > 100 µM (inactive)
OVCAR-3
  GI50: > 100 µM (inactive)
MDA-MB-435
  GI50: > 100 µM (inactive)
KM12
  GI50: > 100 µM (inactive)
SK-MEL-2
  GI50: > 100 µM (inactive)
UACC-257
  GI50: > 100 µM (inactive)
HCT-15
  GI50: > 100 µM
HOP-92
  GI50: 63 µM (inactive)
SN12C
  GI50: > 100 µM (inactive)
MCF7
  GI50: > 100 µM (inactive)
RPMI-8226
  GI50: > 100 µM (inactive)
M14
  GI50: > 100 µM (inactive)
SW-620
  GI50: > 100 µM (inactive)
A549
  GI50: > 100 µM (inactive)
COLO 205
  GI50: > 100 µM (inactive)
TK-10
  GI50: > 100 µM (inactive)
Hs-578T
  GI50: > 100 µM (inactive)
U-251
  GI50: > 100 µM (inactive)
CCRF-CEM
  GI50: > 100 µM (inactive)
LOX IMVI
  GI50: > 100 µM (inactive)
DU-145
  GI50: > 100 µM (inactive)
OVCAR-8
  GI50: > 100 µM (inactive)
786-0
  GI50: > 100 µM (inactive)
HL-60
  GI50: > 100 µM (inactive)
NCI-H23
  GI50: > 100 µM (inactive)

## O=C1C=CC=C/C1=C1\N=C(c2ccccc2OCC(=O)c2ccc(Br)cc2)SS1
SK-MEL-28
  GI50: > 100 µM (inactive)
MDA-N
  GI50: > 100 µM (inactive)
UO-31
  GI50: > 100 µM (inactive)
MDA-MB-231
  GI50: > 10 µM (inactive)
HT-29
  GI50: > 100 µM (inactive)
SNB-19
  GI50: > 100 µM (inactive)
IGROV-1
  GI50: 9.23 µM (inactive)
ACHN
  GI50: 62.7 µM (inactive)
T47D
  GI50: > 100 µM (inactive)
OVCAR-5
  GI50: > 100 µM (inactive)
EKVX
  GI50: 89.9 µM (inactive)
NCI-H226
  GI50: 48 µM (inactive)
NCI-H460
  GI50: > 100 µM (inactive)
HCT-116
  GI50: 78.9 µM (inactive)
SF-295
  GI50: 28.2 µM (inactive)
SNB-75
  GI50: 8.93 µM (inactive)
MOLT-4
  GI50: > 10 µM (inactive)
K562
  GI50: > 100 µM (inactive)
SF-268
  GI50: 32 µM (inactive)
UACC-62
  GI50: 23.1 µM (inactive)
RXF 393
  GI50: 30 µM (inactive)
A498
  GI50: > 100 µM (inactive)
SK-MEL-5
  GI50: > 100 µM (inactive)
HOP-62
  GI50: 4.08 µM (inactive)
SF-539
  GI50: 24.4 µM (inactive)
HCC 2998
  GI50: > 100 µM (inactive)
BT-549
  GI50: 13.3 µM (inactive)
PC-3
  GI50: > 100 µM (inactive)
NCI/ADR-RES
  GI50: > 100 µM (inactive)
OVCAR-3
  GI50: > 100 µM (inactive)
MDA-MB-435
  GI50: > 100 µM (inactive)
KM12
  GI50: > 100 µM (inactive)
SK-MEL-2
  GI50: 42.5 µM (inactive)
UACC-257
  GI50: > 100 µM (inactive)
HCT-15
  GI50: > 100 µM
HOP-92
  GI50: 63.8 µM (inactive)
OVCAR-4
  GI50: 40.1 µM (inactive)
SN12C
  GI50: > 100 µM (inactive)
MCF7
  GI50: > 100 µM (inactive)
RPMI-8226
  GI50: > 100 µM (inactive)
M14
  GI50: 73.3 µM (inactive)
SW-620
  GI50: > 100 µM (inactive)
A549
  GI50: > 100 µM (inactive)
COLO 205
  GI50: > 100 µM (inactive)
TK-10
  GI50: 13.5 µM (inactive)
Hs-578T
  GI50: 15.2 µM (inactive)
U-251
  GI50: 40.3 µM (inactive)
CCRF-CEM
  GI50: > 100 µM (inactive)
LOX IMVI
  GI50: > 100 µM (inactive)
SK-OV-3
  GI50: 34.3 µM (inactive)
DU-145
  GI50: > 100 µM (inactive)
OVCAR-8
  GI50: 93.5 µM (inactive)
786-0
  GI50: 31.5 µM (inactive)
CAKI-1
  GI50: 34.6 µM (inactive)
Malme-3M
  GI50: > 100 µM (inactive)
HL-60
  GI50: > 100 µM (inactive)
NCI-H23
  GI50: 35.2 µM (inactive)
